# Measurements as given in patent US9446061B2, “Composition containing antibiotics and lysophosphatidylcholine for boosting immunity or treatment of bacterial infections” (priority 2011, dated 2016).
# Marks after values point to notes of the source that are not given here.
# Legend:
# CPA-CLP mice = assay: Mortality of CPA-CLP mice, LPC and DW286AA alone or combined (Example 9); s.c. 4 times 12-hr intervals from 6 hrs after CLP; format: in vivo, ICR mice; conditions: for Survival rate: LPC 1, DW286 0.5, Mix 0.75 mg/kg; for survival rates (survivors/total in brackets), Table 13: mg/kg: LPC 1, LPC + DW286 0.5 + 0.25, DW286/LPC 0.5/1.0, LPC/DW286 1.0/0.5, DW286 0.5
# Description: CPA is well known as an immunosuppressive agent. […] Then, the abdomen was closed following the general procedure.
# [1] = Body weight of CPA-treated mice (Example 9); s.c. 4 times 12-hr intervals from 24 hrs after last CPA-dosing; conditions: LPC 1, DW286 0.5, Mix 0.75 mg/kg
# Procedure: In the INTACT control group, an equal volume of physiological saline was dosed instead of CPA by the same method.
# (§5) In Intact control animals, equal volume of saline was only dosed instead of CPA with same methods.
# In CPA-CLP model, body weight and mortalities were measured once a day for 5 days with automatic electronic balances (Sartorius Co., Ltd., USA), once a day for 2 days in CPA-treated model. All animals were overnight fasted at CPA dosing, CLP or initial dosing to reduce differences from feeding. In addition, body weight gains were calculated as follows:
# CPA-Treat Model: Body weight at sacrifice—at initial dosing (2 days)
# To find suitable dosing regime of LPC and DW286AA combination during the development of new therapeutic agents against sepsis, evaluation was conducted by using CPA-CLP— and CPA-induced immunosuppressive mice. […] Then, mortalities, changes in thymus and spleen weights, changes in white blood cell (WBC) number, and changes in thymic and splenic CD3+, CD4+, CD8+, and TNF-α+ cell numbers, were evaluated together with changes in bone marrow polychromatic erythrocytes contain micronuclei (MNPCE) number.
# (§6) Appropriate doses of candidate materials were dissolved in 5% human serum albumin, and subcutaneously dosed at 10 ml/kg (of body weight), 4 times 12-hr intervals from 6 hrs after CLP or 24 hrs after last CPA-dosing, respectively. In the INTACT, CPA, or CPA-CLP control groups, an equal volume of 5% human serum albumin was dosed by the same procedure.
# [2] = test system: thymic CD3+, CD4+, CD8+ and TNF-α+ cells; assay: Immunohistochemistry of thymus (cortex and medulla) in CPA-treated mice; format: in vivo, ICR mice
# Procedure: (§1) After deparraffinized, CD3 epitope retrievals were conducted in 10 mM Tris-1 mM EDTA Buffer (pH 9.0), CD4 and CD8 in 1 mM EDTA Buffer (pH 8.0), and TNF-α in 10 mM Citrate Buffer (pH 6.0) as previous methods. Primary anti-antibodies used in the invention were as following table.
# (§2) The water bath with a staining dish, containing a buffer, was preheated until the temperature reached 95-100. The staining dish was placed at room temperature and the slides were cooled for 20 minutes. After epitope retrivals, sections were immunostained as following steps
# (§3) First, the sections were incubated with methanol and 0.3% H2O2 for 30 min to block endogenous peroxidase activity at room temperature, and then rinsed three times in 0.01M phosphate buffered saline (PBS; pH 7.2) for 3 times. Then, the sections were incubated with the normal horse serum blocking solution (Vector Lab. Inc., CA, USA., dilution 1:100) for 1 hr at room temperature in a humidity chamber, to block non-specific binding of immunoglobulin, and then rinsed three times in 0.01M PBS. The sections were incubated with four types of primary antisera for 12 hrs at 4 in a humidity chamber, and then rinsed three times in 0.01M PBS. The sections were incubated with universal biotinylated secondary antibody for 1 hr at room temperature in a humidity chamber, and then rinsed three times in 0.01M PBS. The sections were incubated with ABC reagents (Vectastain Elite ABC Kit, Vector Lab. Inc., CA, USA. Dilution 1:50) for 1 hr at room temperature in a humidity chamber, and then rinsed three times in 0.01M PBS. The sections were incubated in the peroxidase substrate kit (Vector Lab. Inc., CA) for 30 seconds at room temperature, and then rinsed three times in 0.01M PBS. The sections were counterstained with the Mayer's hematoxylin solution, and then rinsed in running tap water for 30 minutes. The sections were dehydrated through 95% ethanol for 2 min and 100% ethanol for […], and then rinsed in xylene for 2 hrs. After that, the sections were observed using a cover slip with permanent mounting medium under the light microscope (Zeiss, Germany).
# (§4) Histomorphometry—Among 1000 splenic or thymic cells, the numbers (N) of immunoreactive cells (CD3+, CD4+, CD8+, and TNF-α+) were observed as N/1000 splenocytes or thymocytes using automated image analysis. In thymus, the counts were conducted in the both cortex and medulla separately.
# [3] = test system: CPA-induced immunosuppressive mice; assay: Histopathology/histomorphometry of thymus and spleen in CPA-treated mice; format: in vivo, ICR mice
# Procedure: After measuring of organ weight, thymus and spleen was sampled. Sampled organs were fixed in 10% neutral buffered formalin. After paraffin embedding, 3-4 μm sections were prepared. Representative sections were stained with Hematoxylin and Eosin (H&E) for light microscopical examination. After that the histological profiles of individual organs were observed.
# The numbers of white pulps in spleen were calculated as N/histological sections (×50) using automated image analysis (analySIS Image Processing; SIS, Germany). In addition, the numbers of atrophic changes on thymic cortex/total observed number of thymus were also calculated.
# [4] = test system: splenic CD3+, CD4+, CD8+ and TNF-α+ cells; assay: Immunohistochemistry of spleen in CPA-treated mice; format: in vivo, ICR mice
# Procedure: as §1, §2, §3, §4
# [5] = test system: bone marrow polychromatic erythrocytes; assay: Bone marrow MNPCE and PCE/(PCE+NCE) in CPA-treated mice; conditions: LPC 1, DW286 0.5, Mix 0.75 mg/kg
# Procedure: as §5
# In brief, bone marrow cells were collected from aforementioned femur in 3 ml of inactivated fetal bovine serum (GIBCO BRL, USA), centrifuged, and smeared on slide. Preparations were dried, and fixed by submerging in absolute methanol (for 10˜20 min). Fixed slides were stained as follow:
# Slides were randomly coded and examined under×1000 magnification by two different experts. Small round or oval shaped bodies, size of which ranging about ⅕ to 1/20 of diameter of PCE, were counted as micronuclei. Attention was given to discriminate micronuclei from artifacts. Results were expressed as the number of MNPCEs in 1000 PCEs. Mean number of MNPCE±S.D. was calculated for each treatment group.
# as §6
# [6] = LPC 1, DW286 0.5, Mix 0.75 mg/kg
# [7] = thymus cortex, CPA-treated mice, Mean ± S.D., n = 9
# [8] = thymus medulla, CPA-treated mice, Mean ± S.D., n = 9
# [9] = spleen, CPA-treated mice, Mean ± S.D., n = 9
substance,measurement,setting,value
Lysophosphatidylcholine [LPC],Survival rate,CPA-CLP mice; 1 day after CLP,55.55%
same,"survival rates (survivors/total in brackets), Table 13",CPA-CLP mice; 1 day after dosing,56 (5/9)
same,Survival rate,CPA-CLP mice; 2 days after CLP,33.33%
same,"survival rates (survivors/total in brackets), Table 13",CPA-CLP mice; 2 days after dosing,33 (3/9)
same,Survival rate,CPA-CLP mice; 3 days after CLP,22.22%
same,"survival rates (survivors/total in brackets), Table 13",CPA-CLP mice; 3 days after dosing,22 (2/9)
same,Survival rate,CPA-CLP mice; 4 days after CLP,0%
same,"survival rates (survivors/total in brackets), Table 13",CPA-CLP mice; 4 days after dosing,0 (0/9)
same,Survival rate,CPA-CLP mice; 5 days after CLP,0%
same,Survival rate,CPA-CLP mice; At CLP,100%
same,"survival rates (survivors/total in brackets), Table 13",CPA-CLP mice; Dosing Day 0,100 (9/9)
same,Survival rate,CPA-CLP mice; Total,0%
same,Body weight,[1]; 1 day after second CPA-dosing,36.54 ± 1.72 g
same,Body weight,[1]; 2 days after second CPA-dosing,37.04 ± 1.47 g
same,Body weight,[1]; At Dosing (overnight fasted),32.08 ± 1.47 g
same,Body weight,[1]; At First CPA dosing (overnight fasted),36.58 ± 1.36 g
same,Body weight gains during 2 days after dosing,[1],4.97 ± 1.67 g
same,body weight (gains) change compared to the CPA control group,[1],−12.35%
same,"numbers of thymic cortex CD3+ cells, change compared to CPA control",[2]; [6],328.69%
same,"numbers of thymic cortex CD4+ cells, change compared to CPA control",[2]; [6],408.70%
same,"numbers of thymic cortex CD8+ cells, change compared to CPA control",[2]; [6],11.11%
same,"numbers of thymic medulla CD3+ cells, change compared to CPA control",[2]; [6],12466.67%
same,"numbers of thymic medulla CD4+ cells, change compared to CPA control",[2]; [6],−9.09%
same,"numbers of thymic medulla CD8+ cells, change compared to CPA control",[2]; [6],−5.56%
same,"thymic cortex TNF-α+ cells, change compared to CPA control",[2]; [6],65.22%
same,"thymic medulla TNF-α+ cells, change compared to CPA control",[2]; [6],133.33%
same,"CD3+ cells, Thymus: Cortex (IHC-Histomorphometry)",[2]; [7],780.22 ± 85.78 N/1000 splenocytes or thymocytes
same,"CD4+ cells, Thymus: Cortex (IHC-Histomorphometry)",[2]; [7],"13.00 ± 2.45*^,# N/1000 splenocytes or thymocytes"
same,"CD8+ cells, Thymus: Cortex (IHC-Histomorphometry)",[2]; [7],3.33 ± 1.22 N/1000 splenocytes or thymocytes
same,"TNF-α+ cells, Thymus: Cortex (IHC-Histomorphometry)",[2]; [7],4.22 ± 1.20 N/1000 splenocytes or thymocytes
same,"CD3+ cells, Thymus: Medulla (IHC-Histomorphometry)",[2]; [8],"41.89 ± 10.23*^,# N/1000 splenocytes or thymocytes"
same,"CD4+ cells, Thymus: Medulla (IHC-Histomorphometry)",[2]; [8],2.22 ± 0.97 N/1000 splenocytes or thymocytes
same,"CD8+ cells, Thymus: Medulla (IHC-Histomorphometry)",[2]; [8],1.89 ± 0.60 N/1000 splenocytes or thymocytes
same,"TNF-α+ cells, Thymus: Medulla (IHC-Histomorphometry)",[2]; [8],1.33 ± 1.00 N/1000 splenocytes or thymocytes
same,"atrophic changes (decreases in lymphoid cells in the thymic cortex), FIG. 7","[3]; CPA-treated model, in words",effectively inhibited
same,"splenic atrophy and decrease in lymphoid cells, FIG. 8","[3]; CPA-treated model, in words",effectively inhibited
same,Spleen: Number of white pulps,[3]; [6],"12.56 ± 1.81*^,# N/histological sections"
same,Thymus: Incidences of thymic cortex atrophy (atrophic changes/total observed number of thymus),[3]; [6],8/9 (88.89%)
same,incidences of decrease of lymphoid cells in the thymic cortex,[3]; [6],88.89%
same,"numbers of white pulps of spleen, change compared to CPA control",[3]; [6],101.79%
same,"numbers of splenic CD3+ cells, change compared to CPA control",[4]; [6],18.29%
same,"numbers of splenic CD4+ cells, change compared to CPA control",[4]; [6],136.54%
same,"numbers of splenic CD8+ cells, change compared to CPA control",[4]; [6],72.89%
same,"splenic TNF-α+ cells, change compared to CPA control",[4]; [6],36.75%
same,"CD3+ cells, Spleen (IHC-Histomorphometry)",[4]; [9],"76.89 ± 6.23*^,## N/1000 splenocytes or thymocytes"
same,"CD4+ cells, Spleen (IHC-Histomorphometry)",[4]; [9],"109.33 ± 20.77*^,# N/1000 splenocytes or thymocytes"
same,"CD8+ cells, Spleen (IHC-Histomorphometry)",[4]; [9],"88.56 ± 11.18*^,# N/1000 splenocytes or thymocytes"
same,"TNF-α+ cells, Spleen (IHC-Histomorphometry)",[4]; [9],"63.67 ± 9.10*^,# N/1000 splenocytes or thymocytes"
same,"MNPCE numbers, change compared to CPA control",[5],−14.34%
same,"PCE/(PCE+NCE), change compared to CPA control",[5],−12.98%
same,NCE,[5]; among 500 erythrocytes,377.11 ± 22.32
same,PCE,[5]; among 500 erythrocytes,122.89 ± 22.32
same,PCE/(NCE + PCE),[5]; among 500 erythrocytes,0.25 ± 0.04
same,% MNPCE,[5]; among 1000 PCEs,2.46 ± 0.75 %
